Test results reported in US20240000698A1, “COMPOSITION COMPRISING FERMENTED EXTRACT FROM PINE FOR PREVENTING SKIN WRINKLE, IMPROVING SKIN BARRIER FUNCTION, PREVENTING HAIR LOSS, PROMOTING HAIR GROWTH AND IMPROVING HAIR HEALTH AND METHOD FOR MANUFACTURING THE SAME” (TaedamBio Co., Ltd., priority 2022, published 2024).

Experiment: DPPH free radical scavenging activity measurement test
Assay type: biochemical
Protocol: The free radical scavenging activity measurement test was conducted using 2,2-diphenyl-1-picrylhydrazyl (DPPH) to evaluate the free radical scavenging activity contained in active oxygen, which is one of the antioxidant effects on the fermented pine tree extract obtained by the above method (testing institution: Korea Testing and Research Institute, test number: TNK-2022-000242). The fermented pine extract was prepared at 5, 10, 20, and 30% concentrations using ethanol, and as a positive control material, L-Ascorbic acid was weighed, and was prepared at concentrations of 0.0005, 0.001, 0.0015, and 0.002% using distilled water. Ethanol was used to prepare DPPH at concentrations of 0.2 mM. 100 μL of the preparations for each concentration were dispensed into a 96-well plate, 0.2 mM DPPH and 100 μL of Ethanol were added, and reacted at room temperature for 30 minutes in a light-shielding state, and then absorbance was measured at 517 nm wavelength. The DPPH free radical scavenging activity (%) was calculated using the following formula. Each experimental result was measured three times to calculate the mean and standard deviation, and the confidence interval was set at 95%. [formula] [formula]

- IC50 (concentration representing 50% activity) (DPPH free radical scavenging): 0.0013%
Structure (SMILES): O=C1O[C@H]([C@@H](O)CO)C(O)=C1O [positive control substance, L-Ascorbic acid]
- DPPH free radical scavenging activity (positive control 0.0015% in distilled water): 57.25%
- DPPH free radical scavenging activity (positive control 0.002% in distilled water): 77.39%
